Measurements taken from the CheMixHub viscosity set.
“And” between values parts separate entries of the source, which are not always exact repeats. Equal values may be shown once.

Experiment: xn = mol fraction of the nth substance listed

COc1ccccc1 + C1COCCO1
viscosity [mPa·s]
Conditions | 293.15 K | 298.15 K | 303.15 K | 308.15 K | 313.15 K | 323.15 K
101 kPa, x1 = 0.0973 | – | 1.154 | 1.063 | 0.9679 | 0.9021 | –
101 kPa, x1 = 0.1993 | – | 1.136 | 1.04 | 0.9633 | 0.8956 | –
101 kPa, x1 = 0.3019 | – | 1.105 | 1.021 | 0.9435 | 0.8729 | –
101 kPa, x1 = 0.4003 | – | 1.094 | 1.011 | 0.9342 | 0.8659 | –
101 kPa, x1 = 0.4999 | – | – | – | 0.9209 | 0.854 | –
101 kPa, x1 = 0.5976 | – | 1.06 | 0.983 | 0.9122 | 0.8465 | –
101 kPa, x1 = 0.7024 | – | – | 0.9723 | 0.9001 | 0.8338 | –
101 kPa, x1 = 0.7992 | – | – | 0.9564 | 0.8957 | 0.8226 | –
101 kPa, x1 = 0.9003 | – | 1.019 | 0.9451 | 0.8765 | 0.8129 | –
101.3 kPa, x1 = 0.1191 | 1.251 | – | 1.062 | – | 0.916 | 0.799
101.3 kPa, x1 = 0.2422 | 1.218 | – | 1.037 | – | 0.898 | 0.785
101.3 kPa, x1 = 0.3646 | 1.223 | – | 1.014 | – | 0.879 | 0.77
101.3 kPa, x1 = 0.4786 | 1.195 | – | 1.018 | – | 0.882 | 0.76
101.3 kPa, x1 = 0.6021 | 1.16 | – | 0.981 | – | 0.853 | 0.749
101.3 kPa, x1 = 0.7164 | 1.125 | – | 0.965 | – | 0.84 | 0.738
101.3 kPa, x1 = 0.8783 | 1.099 | – | 0.943 | – | 0.822 | 0.724

COc1ccccc1 + CC1COC(=O)O1
viscosity [mPa·s], 101.33 kPa
Conditions | x2 = 0.0794 | x2 = 0.1323 | x2 = 0.2487 | x2 = 0.3578 | x2 = 0.4971 | x2 = 0.5795 | x2 = 0.6669 | x2 = 0.7278 | x2 = 0.835 | x2 = 0.9009
293.15 K | 1.142 | 1.199 | 1.316 | 1.449 | 1.64 | 1.773 | 1.917 | 2.031 | 2.246 | 2.406
303.15 K | 0.971 | 1.013 | 1.101 | 1.212 | 1.372 | 1.479 | 1.591 | 1.682 | 1.851 | 1.978
313.15 K | 0.849 | 0.889 | 0.972 | 1.066 | 1.177 | 1.26 | 1.347 | 1.423 | 1.569 | 1.671

C1CCOC1 + CC#N
viscosity [mPa·s], 101 kPa
Conditions | x2 = 0.1633 | x2 = 0.3052 | x2 = 0.4295 | x2 = 0.5394 | x2 = 0.6372 | x2 = 0.7249 | x2 = 0.8039 | x2 = 0.8754 | x2 = 0.9405
298.15 K | 0.4419 | 0.4236 | 0.4075 | 0.3932 | 0.3808 | 0.3701 | 0.3611 | 0.3539 | 0.3481
308.15 K | 0.4066 | 0.3875 | 0.3701 | 0.355 | 0.3425 | 0.3321 | 0.3242 | 0.3184 | 0.3145
318.15 K | 0.3683 | 0.3497 | 0.334 | 0.3202 | 0.3089 | 0.3001 | 0.2938 | 0.2901 | 0.2879

CC1COC(=O)O1 (stereo not drawn) + CC#N
viscosity [mPa·s], 101.3 kPa
Conditions | x1 = 0.0418 | x1 = 0.0892 | x1 = 0.1438 | x1 = 0.2071 | x1 = 0.2815 | x1 = 0.3701 | x1 = 0.4776 | x1 = 0.6104 | x1 = 0.7791
298.15 K | 0.383 | 0.423 | 0.479 | 0.551 | 0.642 | 0.778 | 0.968 | 1.248 | 1.675
303.15 K | 0.363 | 0.403 | 0.454 | 0.521 | 0.605 | 0.731 | 0.906 | 1.161 | 1.535
308.15 K | 0.347 | 0.384 | 0.432 | 0.494 | 0.575 | 0.693 | 0.846 | 1.078 | 1.42
313.15 K | 0.331 | 0.367 | 0.411 | 0.469 | 0.543 | 0.654 | 0.802 | 1.054 | 1.31
318.15 K | 0.316 | 0.353 | 0.397 | 0.455 | 0.509 | 0.625 | 0.76 | 0.965 | 1.22

Cc1ccccc1 + CC#N
Conditions | viscosity [mPa·s]
298.15 K, 101.3 kPa, x1 = 0.04717 | 0.348
298.15 K, 101.3 kPa, x1 = 0.1002 | 0.35
298.15 K, 101.3 kPa, x1 = 0.1603 | 0.365
298.15 K, 101.3 kPa, x1 = 0.229 | 0.38
298.15 K, 101.3 kPa, x1 = 0.3082 | 0.403
298.15 K, 101.3 kPa, x1 = 0.4006 | 0.427
298.15 K, 101.3 kPa, x1 = 0.5097 | 0.457
298.15 K, 101.3 kPa, x1 = 0.6406 | 0.487
298.15 K, 101.3 kPa, x1 = 0.8004 | 0.527
298.17 K, 100 kPa, x2 = 0.5 | 0.4526
298.19 K, 100 kPa, x2 = 0.25 | 0.5085
303 K, 100 kPa, x2 = 0.126 | 0.5031
303 K, 100 kPa, x2 = 0.2324 | 0.4911
303 K, 100 kPa, x2 = 0.3293 | 0.4787
303 K, 100 kPa, x2 = 0.4233 | 0.4725
303 K, 100 kPa, x2 = 0.5023 | 0.4621
303 K, 100 kPa, x2 = 0.6588 | 0.4355
303 K, 100 kPa, x2 = 0.7316 | 0.4231
303 K, 100 kPa, x2 = 0.876 | 0.4007
308 K, 100 kPa, x2 = 0.126 | 0.4825
308 K, 100 kPa, x2 = 0.2324 | 0.4755
308 K, 100 kPa, x2 = 0.3293 | 0.4625
308 K, 100 kPa, x2 = 0.4233 | 0.4525
308 K, 100 kPa, x2 = 0.5023 | 0.4436
308 K, 100 kPa, x2 = 0.6588 | 0.4166
308 K, 100 kPa, x2 = 0.7316 | 0.4038
308 K, 100 kPa, x2 = 0.876 | 0.3715
308.15 K, 101 kPa, x1 = 0.1038 | 0.3334
308.15 K, 101 kPa, x1 = 0.2993 | 0.3692
308.15 K, 101 kPa, x1 = 0.3885 | 0.3887
308.15 K, 101 kPa, x1 = 0.5986 | 0.424
308.15 K, 101 kPa, x1 = 0.6907 | 0.4457
308.15 K, 101 kPa, x1 = 0.7946 | 0.4617
308.15 K, 101 kPa, x1 = 0.8925 | 0.4789
308.15 K, 101.3 kPa, x1 = 0.04717 | 0.309
308.15 K, 101.3 kPa, x1 = 0.1002 | 0.309
308.15 K, 101.3 kPa, x1 = 0.1603 | 0.33
308.15 K, 101.3 kPa, x1 = 0.3082 | 0.375
308.15 K, 101.3 kPa, x1 = 0.4006 | 0.389
308.15 K, 101.3 kPa, x1 = 0.5097 | 0.421
308.15 K, 101.3 kPa, x1 = 0.6406 | 0.434
308.15 K, 101.3 kPa, x1 = 0.8004 | 0.45
313 K, 100 kPa, x2 = 0.126 | 0.4655
313 K, 100 kPa, x2 = 0.2324 | 0.4551
313 K, 100 kPa, x2 = 0.3293 | 0.4425
313 K, 100 kPa, x2 = 0.4233 | 0.4311
313 K, 100 kPa, x2 = 0.5023 | 0.4179
313 K, 100 kPa, x2 = 0.6588 | 0.4006
313 K, 100 kPa, x2 = 0.7316 | 0.3878
313 K, 100 kPa, x2 = 0.876 | 0.3512
323.05 K, 100 kPa, x2 = 0.75 | 0.308
323.08 K, 100 kPa, x2 = 0.25 | 0.3879
323.09 K, 100 kPa, x2 = 0.5 | 0.3497

CC(=O)C1CCOC1=O (stereo not drawn) + CC(=O)C1CC1
101.3 kPa
Conditions | viscosity [mPa·s]
303.15 K, x2 = 0.0998 | 3.195
313.15 K, x2 = 0.3004 | 1.945

c1ccc2ccccc2c1 + CC(=O)O
viscosity
Conditions | 303.15 K | 308.15 K | 313.15 K | 318.15 K | 323.15 K
101 kPa, x1 = 0.06774 | 1.187 mPa·s | 1.093 mPa·s | 1.01 mPa·s | 0.9386 mPa·s | 0.8751 mPa·s
101 kPa, x1 = 0.116 | – | 1.108 mPa·s | 1.024 mPa·s | 0.951 mPa·s | 0.8838 mPa·s
101.33 kPa, x1 = 0.06774 | 1.187 mPa·s | 1.093 mPa·s | 1.01 mPa·s and 1.01 mPa·s | 0.9386 mPa·s | 0.8751 mPa·s
101.33 kPa, x1 = 0.08923 | – | – | 1.023 mPa·s | – | –
101.33 kPa, x1 = 0.116 | – | – | 1.024 mPa·s | – | –
101.33 kPa, x1 = 0.12 | – | 1.108 mPa·s | 1.024 mPa·s | 0.951 mPa·s | 0.8838 mPa·s
101.33 kPa, x1 = 0.1443 | – | – | 1.049 mPa·s | – | –
